Measured values: patent US4918056A, “2-substituted arabinopyranosyl nucleosides and nucleotides” (priority 1986, dated 1990)

Test system: L1210/ara-C leukemia
Assay: Therapeutic activity in DBA/2N mice with ara-C resistant L1210 leukemia
Conditions: for Median survival: control 7; for Mean ± SD survival: control 7.1 + 0.1
Method: In conducting the evaluations, the activity was tested against intraperitoneal (i.p.) implanted leukemia in mice.
DBA/2N female mice (20 g) were implanted i.p. with 1×10^6 L1210 leukemia cells on day 0. Mice were weighed and inspected for tumor growth and survival daily. […] Dosages varied from 1 to 800 mg/kg/day (mkd).
Survival time was measured in days after tumor implantation. % ILS (increase in life span) was based on mean survival.
Testing was followed as described in the NCI protocol and evaluation by comparison of median survival time (ST) of the treated animals to that of the control animals by the percentage increase in % ILS.
Drug resistant L1210 leukemia cell sublines were obtained from the National Cancer Institute. […] Eight mice were used as controls and five mice for each drug dosage group. Drugs were administered i.p. once per day on days 1, 2, 3, 4 and 5.

## COC1OC[C@@H](OC(C)=O)[C@@H](OC(C)=O)[C@]1(F)n1ccc(=O)[nH]c1=O (stereo partly drawn) [compound 85024, Methyl 3,4-di-0-acetyl-2-deoxy-2(R)-[1H,3H-2,4-dioxo-1-pyrimidinyl]-2-fluoro-α-D-arabinopyranoside [5a] and methyl 3,4-di-0-acetyl-2-deoxy-2(R)-[1H,3H-2,4-dioxo-1-pyrimidinyl]-2-fluoro-β-D-arabinopyranoside [6a]]
100 mkd × 5 i.p.
  Mean Animal Weight: 20.7 g
  Survival Range: 8 to 9 days
  Median survival: 9 days
  Mean ± SD survival: 8.6 ± 0.2 days
100 mkd × 5 i.p., NS
  % ILS (increase in life span): 28%
200 mkd × 5 i.p.
  Mean Animal Weight: 21.0 g
  Survival Range: 8 to 9 days
  Median survival: 9 days
  Mean ± SD survival: 8.8 ± 0.2 days
200 mkd × 5 i.p., P <.01
  % ILS (increase in life span): 28%
500 mkd × 5 i.p.
  Mean Animal Weight: 18.6 g
  Survival Range: 10 to 11 days
  Median survival: 11 days
  Mean ± SD survival: 10.8 ± 0.2 days
500 mkd × 5 i.p., P <.01
  % ILS (increase in life span): 57%
Summary of L1210/ara-C and L1210/5-FU tests
  cross resistance to ara-C and 5-FU: not cross resistant
